Results on two compounds are retold here after BindingDB's records for doi:10.1021/acsmedchemlett.7b00140 (Pfizer, 2017).

In this test the target is Small conductance calcium-activated potassium channel protein 2, KCNN2 (Homo sapiens) (UniProt Q9H2S1). As to the kind of experiment: Binding affinity to SK2 (unknown origin).
Chain of Small conductance calcium-activated potassium channel protein 2, KCNN2 (Homo sapiens) (Q9H2S1 whole entry, looked up): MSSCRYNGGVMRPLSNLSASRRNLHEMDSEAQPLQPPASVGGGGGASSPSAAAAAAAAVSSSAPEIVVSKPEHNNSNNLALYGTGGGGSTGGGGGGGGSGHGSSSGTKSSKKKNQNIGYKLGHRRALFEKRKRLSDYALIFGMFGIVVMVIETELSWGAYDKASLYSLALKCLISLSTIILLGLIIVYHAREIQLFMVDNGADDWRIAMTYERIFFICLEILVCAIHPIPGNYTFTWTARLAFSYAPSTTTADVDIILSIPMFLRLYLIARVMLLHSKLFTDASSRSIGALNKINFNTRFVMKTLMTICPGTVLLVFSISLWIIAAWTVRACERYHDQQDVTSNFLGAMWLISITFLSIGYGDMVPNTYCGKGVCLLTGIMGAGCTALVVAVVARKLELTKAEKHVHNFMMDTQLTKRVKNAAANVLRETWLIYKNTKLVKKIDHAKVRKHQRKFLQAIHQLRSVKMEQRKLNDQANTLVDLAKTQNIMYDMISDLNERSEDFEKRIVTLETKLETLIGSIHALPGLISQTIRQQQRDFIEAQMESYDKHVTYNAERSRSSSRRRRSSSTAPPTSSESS

For the compound `N#Cc1ccc(-c2n[nH]c3cc(OC(F)(F)F)ccc23)cc1`, the EC50 is above 10 µM.

As for `FC(F)(F)c1ccc2c(Nc3ccc(Cl)nc3)n[nH]c2c1`, the concentration for a half-maximal effect (EC50) is above 10 µM.

For orientation: EC50 means the midpoint of the concentration-response curve.
